The values below come from patent US12428406B2 (PMV Pharmaceuticals, Inc., priority 2019, dated 2025).

T1 sequence (P04637 94-312, change not shown): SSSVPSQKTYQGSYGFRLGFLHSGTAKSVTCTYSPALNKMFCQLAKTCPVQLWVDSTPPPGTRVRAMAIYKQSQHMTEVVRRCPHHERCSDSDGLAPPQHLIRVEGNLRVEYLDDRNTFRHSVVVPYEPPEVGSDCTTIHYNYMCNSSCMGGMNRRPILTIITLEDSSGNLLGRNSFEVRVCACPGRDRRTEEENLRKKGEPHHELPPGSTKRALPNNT

This experiment addresses T1, p53 Y220C (Homo sapiens, UniProt P04637, Y220C).
T1 construct: The recombinant protein was a truncation mutant containing only amino acids 94-312 of p53; made in house; host or cells: E. coli
In words: In vitro DNA binding activity assay (HTRF / TR-FRET): stabilization of p53 Y220C and increase of its DNA binding activity. The format is biochemical. Conditions: recombinant His-tagged p53 Y220C DNA binding domain (aa 94-312), biotin-labeled consensus DNA, incubated at 27° C. or 29° C. for 60 min. In outline: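 Compounds from 4.5 mM DMSO stocks, 3-fold serial dilutions; room-temperature incubations of 15 and 20 min. SC150 = concentration raising DNA binding by 50% over no-compound control.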
On to `COc1ccc(S(C)(=O)=O)cc1NCC#Cc1cc2c(NC3CCN(C)CC3)cccc2n1CC(F)(F)F` [Compound 495A, 2-{3-[(5-methanesulfonyl-2-methoxyphenyl)amino]prop-1-yn-1-yl}-N-(1-methylpiperidin-4-yl)-1-(2,2,2-trifluoroethyl)-1H-indol-4-amine], for which the “SC150 (concentration of the compound required to increase the DNA binding activity by 50%)” value is listed as “+++ (+++ = 0.1 μM ≤ SC150 < 0.2 μM)”.

`CN1CC[C@H](Nc2cccc3c2cc(C#CCNc2ccc(S(C)(=O)=O)cc2O)n3CC(F)(F)F)[C@H](F)C1` [Compound 835A, 2-{[3-(4-{[(3R,4S)-3-fluoro-1-methylpiperidin-4-yl]amino}-1-(2,2,2-trifluoroethyl)-H-indol-2-yl)prop-2-yn-1-yl]amino}-5-methanesulfonylphenol]: the “SC150 (concentration of the compound required to increase the DNA binding activity by 50%)” value was “+ (+ = 0 μM ≤ SC150 < 0.05 μM)”.

`CCCn1c(C#CCNc2ccc(S(C)(=O)=O)cc2OC)cc2c(N[C@H]3CCN(C[C@@H](O)COC)C[C@H]3F)cccc21` (racemic) [Compound 884A]: the “SC150 (concentration of the compound required to increase the DNA binding activity by 50%)” value was “+ (+ = 0 μM ≤ SC150 < 0.05 μM)”.

`CCN1CCC(Nc2cccc3c2cc(C#CCNc2ccc(C(=O)NC)cc2OC)n3CC(F)(F)F)CC1` [Compound 535A, 4-[(3-{4-[(1-ethylpiperidin-4-yl)amino]-1-(2,2,2-trifluoroethyl)-1H-indol-2-yl}prop-2-yn-1-yl)amino]-3-methoxy-N-methylbenzamide]: the “SC150 (concentration of the compound required to increase the DNA binding activity by 50%)” value is “+ (+ = 0 μM ≤ SC150 < 0.05 μM)”.

Turning to `COc1cc(S(C)(=O)=O)ccc1NCC#Cc1cc2c(NC3CCCC(C(=O)O)C3)cccc2n1CC(F)(F)F` (stereo not shown) [Compound 36A, 3-[(2-{3-[(4-methane-sulfonyl-2-methoxy-phenyl)amino]prop-1-yn-1-yl}-1-(2,2,2-trifluoroethyl)-1H-indol-4-yl)amino] cyclohexane-1-carboxylic acid], the “SC150 (concentration of the compound required to increase the DNA binding activity by 50%)” value was “+++ (+++ = 0.1 μM ≤ SC150 < 0.2 μM)”.

`CCN(CC)[C@H]1CC[C@H](Nc2cccc3c2cc(C#CCNc2ccc(S(=O)(=O)NC)cc2OC)n3CC(F)(F)F)CC1` [Compound 148A, 3-methoxy-N-methyl-4-{[3-(4-{[(1R,4R)-4-(diethylamino)cyclohexyl]amino}-1-(2,2,2-trifluoroethyl)-1H-indol-2-yl)prop-2-yn-1-yl]amino}benzene-1-sulfonamide]: the “SC150 (concentration of the compound required to increase the DNA binding activity by 50%)” value is “+ (+ = 0 μM ≤ SC150 < 0.05 μM)”.

Take `COc1cc(C(=O)O)ccc1NCC#Cc1cc2c(N[C@@H]3CCN(C(C)C)C[C@@H]3F)cccc2n1CC(F)(F)F` [Compound 809A, 4-{[3-(4-{[(3S,4R)-3-fluoro-1-(propan-2-yl)piperidin-4-yl]amino}-1-(2,2,2-trifluoroethyl)-1H-indol-2-yl)prop-2-yn-1-yl]amino}-3-methoxybenzoic acid]: the “SC150 (concentration of the compound required to increase the DNA binding activity by 50%)” value is reported as “+ (+ = 0 μM ≤ SC150 < 0.05 μM)”.

In the case of `COc1cc(C(N)=O)ccc1NCC#Cc1cc2c(N[C@H]3CC[C@@H](N4CC5(COC5)C4)CC3)cccc2n1CC(F)(F)F` [Compound 213A, 3-methoxy-4-{[3-(4-{[(1S,4S)-4-{2-oxa-6-azaspiro[3.3]heptan-6-yl}cyclohexyl]amino}-1-(2,2,2-trifluoroethyl)-1H-indol-2-yl)prop-2-yn-1-yl]amino}benzamide], the “SC150 (concentration of the compound required to increase the DNA binding activity by 50%)” value was “+ (+ = 0 μM ≤ SC150 < 0.05 μM)”.

On to `COc1cc(S(N)(=O)=O)ccc1NCC#Cc1cc2c(NC3CCN(C[C@@H](O)CO)CC3)cccc2n1CC(F)(F)F` [Compound 550A, (rac)-4-({3-[4-({1-[2,3-dihydroxypropyl]piperidin-4-yl}amino)-1-(2,2,2-trifluoroethyl)-1H-indol-2-yl]prop-2-yn-1-yl}amino)-3-methoxybenzene-1-sulfonamide], for which the “SC150 (concentration of the compound required to increase the DNA binding activity by 50%)” value is given as “+ (+ = 0 μM ≤ SC150 < 0.05 μM)”.

Consider `COc1cc(S(N)(=O)=O)ccc1NCC#Cc1cc2c(N[C@@H]3C[C@@H](C)O[C@@H](C)C3)cccc2n1CC(F)(F)F` [Compound 1031A, 3-methoxy-4-{[3-(4-{[(2R,4S,6S)-2,6-dimethyloxan-4-yl]amino}-1-(2,2,2-trifluoroethyl)-1H-indol-2-yl)prop-2-yn-1-yl]amino}benzene-1-sulfonamide], for which the “SC150 (concentration of the compound required to increase the DNA binding activity by 50%)” value is given as “+ (+ = 0 μM ≤ SC150 < 0.05 μM)”.

As for `COc1cc(S(=O)(=O)N(C)C)ccc1NCC#Cc1cc2c(NC3CCN(CC(O)CO)CC3)cccc2n1CC(F)(F)F` (stereo not shown) [Compound 564A, 4-{[3-(4-{[1-(2,3-dihydroxypropyl)piperidin-4-yl]amino}-1-(2,2,2-trifluoroethyl)-1H-indol-2-yl)prop-2-yn-1-yl]amino}-3-methoxy-N,N-dimethylbenzene-1-sulfonamide], the “SC150 (concentration of the compound required to increase the DNA binding activity by 50%)” value is “+ (+ = 0 μM ≤ SC150 < 0.05 μM)”.

Consider `COc1cc(Cl)ccc1NCC#Cc1cc2c(NC3CCN(C)CC3)cccc2n1CC(F)(F)F` [Compound 512A, 2-{3-[(4-chloro-2-methoxyphenyl)amino]prop-1-yn-1-yl}-N-(1-methylpiperidin-4-yl)-1-(2,2,2-trifluoroethyl)-1H-indol-4-amine], for which the “SC150 (concentration of the compound required to increase the DNA binding activity by 50%)” value is on record as “++ (++ = 0.05 μM ≤ SC150 < 0.1 μM)”.

`COCC(CN1CCC(Nc2cccc3c2cc(C#CCNc2ccc(S(C)(=O)=O)cc2OC)n3CC(F)(F)F)CC1)OC(=O)C(C)C` (stereo not shown) [Compound 603A, 1-{4-[(2-{3-[(4-methanesulfonyl-2-methoxyphenyl)amino]prop-1-yn-1-yl}-1-(2,2,2-trifluoroethyl)-1H-indol-4-yl)amino]piperidin-1-yl}-3-methoxypropan-2-yl 2-methylpropanoate]: the “SC150 (concentration of the compound required to increase the DNA binding activity by 50%)” value is “+ (+ = 0 μM ≤ SC150 < 0.05 μM)”.

Regarding `COc1cc(C(=O)O)ccc1NCC#Cc1cc2c(N[C@H]3CCN(C)C[C@H]3F)cccc2n1CC(F)(F)F` (racemic) [Compound 779A, rac-4-{[3-(4-{[(3R,4S)-3-fluoro-1-methylpiperidin-4-yl]amino}-1-(2,2,2-trifluoroethyl)-1H-indol-2-yl)prop-2-yn-1-yl]amino}-3-methoxybenzoic acid], the “SC150 (concentration of the compound required to increase the DNA binding activity by 50%)” value is listed as “+ (+ = 0 μM ≤ SC150 < 0.05 μM)”.

With `CCOc1cc(S(C)(=O)=O)ccc1NCC#Cc1cc2c(NC3CCN(CC(O)COC)CC3)cccc2n1CC(F)(F)F` (stereo not shown) [Compound 631A, 1-{4-[(2-{3-[(2-ethoxy-4-methanesulfonylphenyl)amino]prop-1-yn-1-yl}-1-(2,2,2-trifluoroethyl)-1H-indol-4-yl)amino]piperidin-1-yl}-3-methoxypropan-2-ol], the “SC150 (concentration of the compound required to increase the DNA binding activity by 50%)” value is on record as “+ (+ = 0 μM ≤ SC150 < 0.05 μM)”.

Regarding `COC(=O)c1ccc(NCC#Cc2cc3c(N[C@H]4CCN(C)C[C@H]4F)cccc3n2CC(F)(F)F)c(OC)c1` (stereo in doubt) [Compound 794A, methyl 4-{[3-(4-{[(3R,4S)-3-fluoro-1-methylpiperidin-4-yl]amino}-1-(2,2,2-trifluoroethyl)-1H-indol-2-yl)prop-2-yn-1-yl]amino}-3-methoxybenzoate], the “SC150 (concentration of the compound required to increase the DNA binding activity by 50%)” value is listed as “+ (+ = 0 μM ≤ SC150 < 0.05 μM)”.

As for `COc1cc(S(C)(=O)=O)ccc1NCC#Cc1cc2c(NC3CCN(CCOCCOCCO)CC3)cccc2n1CC(F)(F)F` [Compound 544A, 2-[2-(2-{4-[(2-{3-[(4-methanesulfonyl-2-methoxyphenyl)amino]prop-1-yn-1-yl}-1-(2,2,2-trifluoroethyl)-1H-indol-4-yl)amino]piperidin-1-yl}ethoxy)ethoxy]ethan-1-ol], the “SC150 (concentration of the compound required to increase the DNA binding activity by 50%)” value is “+ (+ = 0 μM ≤ SC150 < 0.05 μM)”.

Turning to `CN1CCC(Nc2cccc3c2cc(C#CCNc2ccc(C(=O)N(C)C)s2)n3CC(F)(F)F)CC1` [Compound 525A, N,N-dimethyl-5-((3-(4-((1-methylpiperidin-4-yl)amino)-1-(2,2,2-trifluoroethyl)-1H-indol-2-yl)prop-2-yn-1-yl)amino)thiophene-2-carboxamide], the “SC150 (concentration of the compound required to increase the DNA binding activity by 50%)” value is listed as “+ (+ = 0 μM ≤ SC150 < 0.05 μM)”.

As to `COCC(O)CN1CCC(Nc2cccc3c2cc(C#CCNc2ccc(S(C)(=O)=O)cc2C(F)(F)F)n3CC(F)(F)F)CC1` (stereo not shown) [Compound 708A, 1-(4-{[2-(3-{[4-methanesulfonyl-2-(trifluoromethyl)phenyl]amino}prop-1-yn-1-yl)-1-(2,2,2-trifluoroethyl)-1H-indol-4-yl]amino}piperidin-1-yl)-3-methoxypropan-2-ol], the “SC150 (concentration of the compound required to increase the DNA binding activity by 50%)” value is “++ (++ = 0.05 μM ≤ SC150 < 0.1 μM)”.

As for `CNC(=O)c1ccc(NCC#Cc2cc3c(N[C@H]4CC[C@H](N5CCOCC5)CC4)cccc3n2CCF)c(OC)c1` [Compound 175A, 4-({3-[1-(2-fluoro-ethyl)-4-{[(1R,4R)-4-(morpholin-4-yl)cyclohexyl]amino}-1H-indol-2-yl]prop-2-yn-1-yl}amino)-3-methoxy-N-methylbenzamide], the “SC150 (concentration of the compound required to increase the DNA binding activity by 50%)” value was “++ (++ = 0.05 μM ≤ SC150 < 0.1 μM)”.

Regarding `CNC(=O)c1cc(OC)c(NCC#Cc2cc3c(N[C@H]4CC[C@H](N5CC6(CCOCC6)C5)CC4)cccc3n2CC(F)(F)F)cc1F` [Compound 335A, 2-fluoro-5-methoxy-N-methyl-4-{[3-(4-{[(1R,4R)-4-{7-oxa-2-azaspiro[3.5]nonan-2-yl}cyclohexyl]amino}-1-(2,2,2-trifluoroethyl)-1H-indol-2-yl)prop-2-yn-1-yl]amino}benzamide], the “SC150 (concentration of the compound required to increase the DNA binding activity by 50%)” value is “+ (+ = 0 μM ≤ SC150 < 0.05 μM)”.

Consider `COc1cc(S(C)(=O)=O)ccc1NCC#Cc1cc2c(N[C@H]3CCOC[C@@H]3OC)cccc2n1CC(F)(F)F` [Compound 1023A, 2-(3-((2-methoxy-4-(methylsulfonyl)phenyl)amino)prop-1-yn-1-yl)-N-((3R,4S)-3-methoxytetrahydro-2H-pyran-4-yl)-1-(2,2,2-trifluoroethyl)-1H-indol-4-amine], for which the “SC150 (concentration of the compound required to increase the DNA binding activity by 50%)” value is on record as “++ (++ = 0.05 μM ≤ SC150 < 0.1 μM)”.
